Results: US20220213047A1, “CARBONIC ANHYDRASE INHIBITORS FOR TREATMENT OF NEISSERIA GONORRHOEAE INFECTION” (Purdue Research Foundation, priority 2021, published 2022)
Values after ≈ are worked out from the molar mass of the structure shown.

Tests used:
N. gonorrhoeae = test: MIC against N. gonorrhoeae clinical isolates, normal and CO2 conditions; assay type: cell-based; conditions: Neisseria gonorrhoeae
Method: (§1) These tests were performed in normal culture conditions with standard CO2 levels and in CO2 (5% in incubator) conditions.

ATCC strain 700825 = test: MICs against ATCC strain 700825; assay type: cell-based, N. gonorrhoeae; conditions: Neisseria gonorrhoeae
Method: as §1

[1] = N. gonorrhoeae 178, Non CO2 environment
[2] = N. gonorrhoeae 178, normal growth environment (with CO2)
[3] = N. gonorrhoeae 181, Non CO2 environment
[4] = N. gonorrhoeae 181, normal growth environment (with CO2)
[5] = N. gonorrhoeae 194, Non CO2 environment
[6] = N. gonorrhoeae 194, normal growth environment (with CO2)

SMILES	MIC (N. gonorrhoeae; [1])	MIC (N. gonorrhoeae; [2])	MIC (N. gonorrhoeae; [3])	MIC (N. gonorrhoeae; [4])	MIC (N. gonorrhoeae; [5])	MIC (N. gonorrhoeae; [6])	MIC (ATCC strain 700825; ATCC700825, In CO2)	MIC (ATCC strain 700825; ATCC700825, In air)
CC(C)=CC(=O)Nc1nnc(S(N)(=O)=O)s1 [CAI 0016]	16 µg/mL (≈ 61 µM)	64 µg/mL (≈ 244 µM)	16 µg/mL (≈ 61 µM)	32 µg/mL (≈ 122 µM)	32 µg/mL (≈ 122 µM)	64 µg/mL (≈ 244 µM)	–	–
NS(=O)(=O)c1nnc(NC(=O)CN2CCCCC2)s1 [CAI 0035]	64 µg/mL (≈ 210 µM)	> 64 µg/mL	> 64 µg/mL	> 64 µg/mL	64 µg/mL (≈ 210 µM)	> 64 µg/mL	–	–
CN1CCN(CC(=O)Nc2nnc(S(N)(=O)=O)s2)CC1 [CAI 0036]	64 µg/mL (≈ 200 µM)	> 64 µg/mL	> 64 µg/mL	> 64 µg/mL	> 64 µg/mL	> 64 µg/mL	–	–
CC(C)CC(=O)Nc1nnc(S(N)(=O)=O)s1 [CAI 0026]	8 µg/mL (≈ 30.3 µM)	32 µg/mL (≈ 121 µM)	8 µg/mL (≈ 30.3 µM)	> 64 µg/mL	4 µg/mL (≈ 15.1 µM)	> 64 µg/mL	–	–
Nc1nnc(S(N)(=O)=O)s1 [CAI 0034]	1 µg/mL (≈ 5.55 µM)	> 64 µg/mL	4 µg/mL (≈ 22.2 µM)	> 64 µg/mL	2 µg/mL (≈ 11.1 µM)	> 64 µg/mL	–	–
CCCCCCC(=O)Nc1nnc(S(N)(=O)=O)s1 [CAI 0027]	2 µg/mL (≈ 6.84 µM)	32 µg/mL (≈ 109 µM)	2 µg/mL (≈ 6.84 µM)	64 µg/mL (≈ 219 µM)	1 µg/mL (≈ 3.42 µM)	64 µg/mL (≈ 219 µM)	–	–
CCN[C@H]1CN(CCCOC)S(=O)(=O)c2sc(S(N)(=O)=O)cc21 [Brinzolamide]	> 64 µg/mL	> 64 µg/mL	> 64 µg/mL	> 64 µg/mL	> 64 µg/mL	> 64 µg/mL	–	–
NS(=O)(=O)c1nnc(NC(=O)CN2CCOCC2)s1 [CAI 0031]	32 µg/mL (≈ 104 µM)	64 µg/mL (≈ 208 µM)	> 64 µg/mL	> 64 µg/mL	64 µg/mL (≈ 208 µM)	> 64 µg/mL	128 µg/mL (≈ 416 µM)	32 µg/mL (≈ 104 µM)
CC(C)(C)C(=O)Nc1nnc(S(N)(=O)=O)s1 [CAI 0010]	32 µg/mL (≈ 121 µM)	32 µg/mL (≈ 121 µM)	32 µg/mL (≈ 121 µM)	> 64 µg/mL	32 µg/mL (≈ 121 µM)	64 µg/mL (≈ 242 µM)	–	–
CCCC(=O)Nc1nnc(S(N)(=O)=O)s1 [CAI 0013]	–	8 µg/mL (≈ 32 µM)	8 µg/mL (≈ 32 µM)	32 µg/mL (≈ 128 µM)	4 µg/mL (≈ 16 µM)	8 µg/mL (≈ 32 µM)	–	–
NS(=O)(=O)c1nnc(NC(=O)CCC2CCCCC2)s1 [CAI 0019]	4 µg/mL (≈ 12.6 µM)	64 µg/mL (≈ 201 µM)	1 µg/mL (≈ 3.14 µM)	64 µg/mL (≈ 201 µM)	2 µg/mL (≈ 6.28 µM)	> 64 µg/mL	32 µg/mL (≈ 100 µM)	4 µg/mL (≈ 12.6 µM)
CCN[C@H]1C[C@H](C)S(=O)(=O)c2sc(S(N)(=O)=O)cc21 [Dorzolamide]	32 µg/mL (≈ 98.6 µM)	> 64 µg/mL	> 64 µg/mL	> 64 µg/mL	> 64 µg/mL	> 64 µg/mL	–	–
NS(=O)(=O)c1nnc(NC(=O)CC2CC2)s1 [CAI 0040]	–	–	–	–	–	–	32 µg/mL (≈ 122 µM)	16 µg/mL (≈ 61 µM)
NS(=O)(=O)c1nnc(NC(=O)CC2CCCC2)s1 [CAI 0021]	2 µg/mL (≈ 6.89 µM)	64 µg/mL (≈ 220 µM)	1 µg/mL (≈ 3.44 µM)	> 64 µg/mL	4 µg/mL (≈ 13.8 µM)	> 64 µg/mL	–	–
NS(=O)(=O)c1nnc(NC(=O)CC2CCCCC2)s1 [CAI 0029]	1 µg/mL (≈ 3.29 µM)	32 µg/mL (≈ 105 µM)	0.5 µg/mL (≈ 1.64 µM)	> 64 µg/mL	2 µg/mL (≈ 6.57 µM)	> 64 µg/mL	–	–
NS(=O)(=O)c1nnc(NC(=O)c2cccc(C(F)(F)F)c2)s1 [CAI 0038]	1 µg/mL (≈ 2.84 µM)	> 64 µg/mL	4 µg/mL (≈ 11.4 µM)	64 µg/mL (≈ 182 µM)	2 µg/mL (≈ 5.68 µM)	> 64 µg/mL	–	–
